Experimental data published in PubChem BioAssay AID248 (DTP/NCI, 2004).
Where “and” joins values, the source holds several entries; their conditions need not be identical. Identical values can stand only once. Toxic doses and inconclusive results are not listed.

Test system: L1210 leukemia ip in BDF1 mice, survival T/C
Assay: NCI In Vivo Anticancer Drug Screen. Data for tumor model L1210 Leukemia (intraperitoneal) in B6D2F1 (BDF1) mice
Conditions: endpoint: mean survival time, higher = longer survival
Outline: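 Each compound was tested against a transplantable tumor grown in mice. The endpoint was survival, with treated animals benchmarked against vehicle controls as a simple ratio.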

[1] = dose: 50.0 mg/kg/injection, schedule: Q01DX009 (ip), vehicle: saline
[2] = dose: 100.0 mg/kg/injection, schedule: Q01DX009 (ip), vehicle: saline
[3] = dose: 100.0 mg/kg/injection, schedule: Q04DX003 (ip), vehicle: saline
[4] = dose: 100.0 mg/kg/injection, schedule: Q04DX002 (ip), vehicle: Klucel (hydroxypropylcellulose) (HPC)
[5] = dose: 200.0 mg/kg/injection, schedule: Q04DX002 (ip), vehicle: Klucel (hydroxypropylcellulose) (HPC)
[6] = dose: 400.0 mg/kg/injection, schedule: Q04DX002 (ip), vehicle: Klucel (hydroxypropylcellulose) (HPC)
[7] = dose: 100.0 mg/kg/injection, schedule: Q01DX001 (ip), vehicle: saline
[8] = dose: 200.0 mg/kg/injection, schedule: Q01DX001 (ip), vehicle: saline
[9] = dose: 400.0 mg/kg/injection, schedule: Q01DX001 (ip), vehicle: saline
[10] = dose: 100.0 mg/kg/injection, schedule: Q01DX009 (ip), vehicle: Klucel (hydroxypropylcellulose) (HPC)
[11] = dose: 200.0 mg/kg/injection, schedule: Q01DX009 (ip), vehicle: Klucel (hydroxypropylcellulose) (HPC)
[12] = dose: 400.0 mg/kg/injection, schedule: Q01DX009 (ip), vehicle: Klucel (hydroxypropylcellulose) (HPC)
[13] = dose: 200.0 mg/kg/injection, schedule: Q01DX009 (ip), vehicle: saline
[14] = dose: 200.0 mg/kg/injection, schedule: Q04DX003 (ip), vehicle: saline
[15] = dose: 400.0 mg/kg/injection, schedule: Q01DX009 (ip), vehicle: saline
[16] = dose: 100.0 mg/kg/injection, schedule: Q01DX009 (ip), vehicle: saline with Tween-80
[17] = dose: 200.0 mg/kg/injection, schedule: Q01DX009 (ip), vehicle: saline with Tween-80
[18] = dose: 400.0 mg/kg/injection, schedule: Q01DX009 (ip), vehicle: saline with Tween-80

CC(C)NC(=O)CCl
T/C (dose: 25.0 mg/kg/injection, schedule: Q01DX009 (ip), vehicle: saline): 96 % of control | T/C (dose: 25.0 mg/kg/injection, schedule: Q04DX003 (ip), vehicle: saline): 90 % of control | T/C [1]: 91 % of control | T/C (dose: 50.0 mg/kg/injection, schedule: Q04DX003 (ip), vehicle: saline): 92 % of control | T/C [2]: 98 % of control | T/C [3]: 102 % of control and 92 % of control

O=C(O)COc1ccc(F)cn1
T/C [4]: 101 % of control | T/C [5]: 93 % of control | T/C [6]: 114 % of control

O=NN(CCCl)C(=O)NC(Cc1ccccc1)C(=O)O (stereo not drawn)
T/C (dose: 12.0 mg/kg/injection, schedule: Q01DX001 (ip), vehicle: gum acacia): 118 % of control | T/C (dose: 28.0 mg/kg/injection, schedule: Q01DX001 (ip), vehicle: gum acacia): 188 % of control | T/C (dose: 42.0 mg/kg/injection, schedule: Q01DX001 (ip), vehicle: gum acacia): 195 % of control | T/C (dose: 63.0 mg/kg/injection, schedule: Q01DX001 (ip), vehicle: gum acacia): 256 % of control | T/C (dose: 112.0 mg/kg/injection, schedule: Q01DX001 (ip), vehicle: gum acacia): 163 % of control | T/C (dose: 168.0 mg/kg/injection, schedule: Q01DX001 (ip), vehicle: gum acacia): 120 % of control

N#CSCCSC#N
T/C (dose: 10.0 mg/kg/injection, schedule: Q04DX003 (ip), vehicle: Klucel (hydroxypropylcellulose) (HPC)): 99 % of control

CC(C#N)(CCC(=O)O)N=NC(C)(C#N)CCC(=O)O (stereo not drawn)
T/C [7]: 102 % of control | T/C [8]: 103 % of control | T/C [9]: 108 % of control

CCOC1(OCC)CC2(Cl)C(Cl)=C(Cl)C(Cl)(C3C1CC3(OCC)OCC)C2(OC)OC (stereo not drawn)
T/C (dose: 75.0 mg/kg/injection, schedule: Q01DX009 (ip), vehicle: Klucel (hydroxypropylcellulose) (HPC)): 103 % of control | T/C (dose: 100.0 mg/kg/injection, schedule: Q01DX001 (ip), vehicle: Klucel (hydroxypropylcellulose) (HPC)): 95 % of control | T/C (dose: 150.0 mg/kg/injection, schedule: Q01DX009 (ip), vehicle: Klucel (hydroxypropylcellulose) (HPC)): 107 % of control | T/C (dose: 200.0 mg/kg/injection, schedule: Q01DX001 (ip), vehicle: Klucel (hydroxypropylcellulose) (HPC)): 103 % of control | T/C (dose: 300.0 mg/kg/injection, schedule: Q01DX009 (ip), vehicle: Klucel (hydroxypropylcellulose) (HPC)): 100 % of control | T/C (dose: 400.0 mg/kg/injection, schedule: Q01DX001 (ip), vehicle: Klucel (hydroxypropylcellulose) (HPC)): 97 % of control

O=S(=O)(c1ccccc1)N1CN2CN(C1)CN(S(=O)(=O)c1ccccc1)C2
T/C [4]: 103 % of control | T/C [5]: 106 % of control | T/C [6]: 89 % of control

Cc1cc(Cl)ccc1OC(=O)Nc1ccccc1F
T/C [10]: 110 % of control | T/C [11]: 98 % of control | T/C [12]: 121 % of control

S=C(S)N1CCOCC1
T/C (dose: 50.0 mg/kg/injection, schedule: Q01DX009 (ip), vehicle: saline sonified): 104 % of control | T/C [7]: 105 % of control | T/C (dose: 100.0 mg/kg/injection, schedule: Q01DX009 (ip), vehicle: saline sonified): 100 % of control | T/C [2]: 98 % of control | T/C [3]: 93 % of control | T/C [8]: 97 % of control | T/C (dose: 200.0 mg/kg/injection, schedule: Q01DX009 (ip), vehicle: saline sonified): 94 % of control | T/C [13]: 106 % of control | T/C [14]: 97 % of control | T/C [15]: 96 % of control | T/C (dose: 400.0 mg/kg/injection, schedule: Q04DX003 (ip), vehicle: saline): 95 % of control

CC(=O)OCCSc1ccc(C)cc1
T/C [4]: 100 % of control | T/C [5]: 103 % of control | T/C [6]: 100 % of control

NN1CCCC1
T/C [1]: 98 % of control | T/C [2]: 96 % of control | T/C [3]: 99 % of control | T/C [14]: 96 % of control

CC(C)=CC(=O)O
T/C [16]: 95 % of control | T/C [17]: 98 % of control | T/C [18]: 104 % of control

O=[N+]([O-])C(Cl)(Cl)C(Cl)(Cl)[N+](=O)[O-]
T/C (dose: 2.5 mg/kg/injection, schedule: Q01DX009 (ip), vehicle: other): 97 % of control | T/C (dose: 2.5 mg/kg/injection, schedule: Q04DX003 (ip), vehicle: other): 100 % of control | T/C (dose: 5.0 mg/kg/injection, schedule: Q01DX001 (ip), vehicle: saline): 94 % of control | T/C (dose: 5.0 mg/kg/injection, schedule: Q01DX009 (ip), vehicle: other): 95 % of control | T/C (dose: 5.0 mg/kg/injection, schedule: Q04DX003 (ip), vehicle: other): 102 % of control | T/C (dose: 10.0 mg/kg/injection, schedule: Q01DX001 (ip), vehicle: saline): 94 % of control | T/C (dose: 10.0 mg/kg/injection, schedule: Q01DX009 (ip), vehicle: other): 90 % of control | T/C (dose: 10.0 mg/kg/injection, schedule: Q04DX003 (ip), vehicle: other): 88 % of control | T/C (dose: 20.0 mg/kg/injection, schedule: Q01DX001 (ip), vehicle: saline): 92 % of control | T/C (dose: 40.0 mg/kg/injection, schedule: Q01DX001 (ip), vehicle: saline): 86 % of control | T/C (dose: 80.0 mg/kg/injection, schedule: Q01DX001 (ip), vehicle: saline): 100 % of control

S=C(c1ccccc1Cl)N1CCOCC1
T/C [7]: 104 % of control | T/C [8]: 102 % of control | T/C [9]: 98 % of control

CCc1ccc(/C=C/c2ccc(O)c3ccccc23)[n+](C)c1
T/C (dose: 75.0 mg/kg/injection, schedule: Q01DX001 (ip), vehicle: saline): 97 % of control | T/C (dose: 150.0 mg/kg/injection, schedule: Q01DX001 (ip), vehicle: saline): 105 % of control

O=c1[nH][nH]c(=O)n1-c1ccccc1
T/C (dose: 25.0 mg/kg/injection, schedule: Q01DX009 (ip), vehicle: saline with Tween-80): 96 % of control | T/C (dose: 50.0 mg/kg/injection, schedule: Q01DX009 (ip), vehicle: saline with Tween-80): 94 % of control | T/C [16]: 100 % of control | T/C (dose: 100.0 mg/kg/injection, schedule: Q04DX002 (ip), vehicle: saline with Tween-80): 100 % of control | T/C (dose: 177.0 mg/kg/injection, schedule: Q04DX002 (ip), vehicle: saline with Tween-80): 95 % of control | T/C [17]: 93 % of control | T/C (dose: 200.0 mg/kg/injection, schedule: Q04DX002 (ip), vehicle: saline with Tween-80): 103 % of control | T/C (dose: 266.0 mg/kg/injection, schedule: Q04DX002 (ip), vehicle: saline with Tween-80): 98 % of control | T/C [18]: 93 % of control | T/C (dose: 600.0 mg/kg/injection, schedule: Q04DX002 (ip), vehicle: saline with Tween-80): 95 % of control

COc1ccccc1CN1CCCN(Cc2ccccc2OC)C1c1ccc(N(CCCl)CCCl)cc1
T/C (dose: 50.0 mg/kg/injection, schedule: Q01DX001 (ip), vehicle: carboxymethylcellulose (CMC)): 115 % of control | T/C (dose: 100.0 mg/kg/injection, schedule: Q01DX001 (ip), vehicle: carboxymethylcellulose (CMC)): 104 % of control | T/C (dose: 200.0 mg/kg/injection, schedule: Q01DX001 (ip), vehicle: carboxymethylcellulose (CMC)): 104 % of control | T/C (dose: 400.0 mg/kg/injection, schedule: Q01DX001 (ip), vehicle: carboxymethylcellulose (CMC)): 104 % of control

CCCCN(CCCC)c1ccc(N=C(C#N)c2ccc(N(CCCC)CCCC)cc2)cc1
T/C [10]: 96 % of control | T/C [11]: 96 % of control | T/C [12]: 105 % of control

CCOCCCN
T/C [1]: 103 % of control | T/C [2]: 95 % of control | T/C [3]: 100 % of control | T/C [14]: 106 % of control

CC(CNC(=O)CCBr)NC(=O)CCBr (stereo not drawn)
T/C (dose: 50.0 mg/kg/injection, schedule: Q01DX Z (ip), vehicle: carboxymethylcellulose (CMC)): 103 % of control | T/C (dose: 170.0 mg/kg/injection, schedule: Q01DX Z (ip), vehicle: carboxymethylcellulose (CMC)): 100 % of control | T/C [13]: 153 % of control | T/C [15]: 178 % of control
